According to patent US20260256871A1, “COMPOSITIONS AND METHODS FOR TREATMENT OF SUBJECTS SUFFERING FROM A SARS-COV-2 INFECTION” (priority 2022, published 2026):
“Also recorded” adds a separate entry of the source. Structures can show the parent of a compound that is named as a salt. Where two headings read alike, the source gives them in different places.

Key:
SARS-CoV2 [1] = assay type: cell-based; settings: for viral load: antioxidants NAC and SFN; for inhibition of SARS-CoV2 replication in HBECs (viral copy number): camostat basolateral
16HBE cells = experiment: Cytotoxicity, CytoTox 96 LDH release assay; settings: for cytotoxicity (LDH release) at maximum concentration used in antiviral assays: 72 h, camostat 125 μM, HA 0.7%, BAPTA-AM 10 uM, allopurinol 400 μM, NAC 100 mM, SFN 10 μM, ivacaftor, PAAG at maximum; for toxicity values (percent of maximum toxicity): Allopurinol 400 uM, NAC 50 mM, SFN 5 uM, 72 hours
cells = settings: due to the very low pH; cited from earlier work
SARS-CoV2 [2] = experiment: Protection against SARS-CoV2 in Vero cells; assay type: cell-based

Structure (SMILES): CC(C)(C)c1cc(C(C)(C)C)c(NC(=O)c2c[nH]c3ccccc3c2=O)cc1O [Ivacaftor, ivacaftor]
- effect on SARS-CoV-2 replication (SARS-CoV2 [1]; ivacaftor basolateral, ≥10 μM, close to its maximum solubility): moderate effect
- cytotoxicity (LDH release) at maximum concentration used in antiviral assays (16HBE cells): showed cytotoxicity

Structure (SMILES): CC(=O)N[C@@H](CS)C(=O)O [NAC, N-Acetyl-L-cysteine]
- viral load (SARS-CoV2 [1]): reduction in the viral load
- cytotoxicity (LDH release) at maximum concentration used in antiviral assays (16HBE cells): neither allopurinol, NAC nor SFN showed cytotoxicity
- toxicity values (percent of maximum toxicity) (16HBE cells): negative values of toxicity

Structure (SMILES): C[S+]([O-])CCCCN=C=S (stereo not shown) [SFN, sulforaphane]
- viral load (SARS-CoV2 [1]): reduction in the viral load
- cytotoxicity (LDH release) at maximum concentration used in antiviral assays (16HBE cells): neither allopurinol, NAC nor SFN showed cytotoxicity
- toxicity values (percent of maximum toxicity) (16HBE cells): negative values of toxicity

Structure (SMILES): Oc1ncnc2[nH]ncc12 [allopurinol]
- protection of HBECs from SARS-CoV2 infection (replication) (SARS-CoV2 [1]; allopurinol 400 uM, xanthine oxidase inhibition): significantly protected; also recorded: significantly blocks SARS-CoV2 replication
- cytotoxicity (LDH release) at maximum concentration used in antiviral assays (16HBE cells): neither allopurinol, NAC nor SFN showed cytotoxicity
- toxicity values (percent of maximum toxicity) (16HBE cells): negative values of toxicity

Structure (SMILES): O=C1O[C@H]([C@@H](O)CO)C(O)=C1O [ascorbic acid]
- cytotoxicity of component alone (without bicarbonate buffer) (cells): cytotoxic

Structure (SMILES): O=C([O-])O.[Na+] [bicarbonate alone, sodium bicarbonate]
- antiviral activity of ARINA-1 components (SARS-CoV2 [1]): did not show significant activity

Structure (SMILES): CN(C)C(=O)COC(=O)Cc1ccc(OC(=O)c2ccc(NC(=N)N)cc2)cc1 [camostat mesylate]
- inhibition of SARS-CoV2 replication in HBECs (viral copy number) (SARS-CoV2 [1]; vs DMSO vehicle, 72 h): dose-dependent manner
- inhibition of SARS-CoV2 replication in HBECs (viral copy number) (SARS-CoV2 [1]; vs DMSO vehicle, 72 h, listed as Camostat): significantly inhibited
- inhibition of SARS-CoV2 infection (SARS-CoV2 [1]; camostat mesylate basolateral, concentrations higher than 16.62 μM, vs DMSO vehicle, 72 h): ~100%
- protection against SARS-CoV2 (SARS-CoV2 [2]): partially protective
- cytotoxicity (LDH release) at maximum concentration used in antiviral assays (16HBE cells): not toxic

Structure (SMILES): N[C@@H](CCC(=O)N[C@@H](CS)C(=O)NCC(=O)O)C(=O)O [glutathione]
- cytotoxicity of component alone (without bicarbonate buffer) (cells): cytotoxic
